Tests used:
[1] = tested on: Staphylococcus aureus (ATCC 43300, MRSA); assay: In vivo efficacy in MRSA-infected moth larvae; design: species or system Galleria mellonella; settings: 24 h after drug administration; vs 10 % DMSO control; rifampicin 0.4 mg/mL, 10 µL
Experimental: Ethics Committee was obtained for use of human blood for haemolysis studies (approval number […]
G. mellonella larvae were reared in controlled environmental room at Macquarie University, Sydney, Australia at 26 °C and 65% humidity with a 12-hours light/dark cycle. Larvae (~200 mg) were individually injected with 10 µL of chemical into the last right proleg using a 100 μL syringe (Hamilton Ltd). The […]
Each compound was dissolved in DMSO and diluted to final concentrations of 1 µM, 100 µM and 10 mM. We injected 5 larvae for each dilution of each compound.
Larvae injected with different dilutions of DMSO (10-1, 10-3 and 10-5) were included as negative controls.
Following injection, the larvae were incubated at 26 °C and monitored every 24 h for 4 days. Larval performance was assessed according to the G. mellonella Health Index Scoring System.[1] The experiments were repeated three separate times.
Galleria larvae (weighing between 200-250 mg) were infected with […] cells of Staphylococcus aureus (ATCC 43300, MRSA) (suspended in 10 µL PBS) and incubated at 37 °C. Two hours later, 10 µL compounds of either Pt1 or Pt2 (0.4 mM) in 10% DMSO was injected to the other proleg of the larvae.
Larvae injected with 10% DMSO and Rifampicin (0.4 mg/mL) were included as controls. […] Bacterial number was determined by drop plate method. […] Bacterial number was counted after incubation for 24 h.

[2] = design: method as in PMID 33469147; settings: mouse skin infection models, topical; cited from earlier work
[3] = Antimicrobial activity of cisplatin in all assays of the paper; format: cell-based
Experimental: Following a protocol previously reported by us we used larvae of the greater wax moth Galleria mellonella as a model organism for in vivo toxicity and efficacy.[20] […] Briefly, stock solutions of Pt1 and Pt2 were prepared in DMSO and diluted to final concentrations of 0.4 mM, 100 μM, 10 μM and 1 μM. Due to solubility limitations higher concentrations could not be evaluated. For each concentration five larvae were injected with 10 μL and monitored for 96 hours for survival and health using the G. mellonella Health Index Scoring System.[22]

Compound: CO[C@H]1/C=C/O[C@@]2(C)Oc3c(C)c(O)c4c(O)c(c(/C=N/N5CCN(C)CC5)c(O)c4c3C2=O)NC(=O)/C(C)=C\C=C\[C@H](C)[C@H](O)[C@@H](C)[C@@H](O)[C@@H](C)[C@H](OC(C)=O)[C@@H]1C [Rifampicin]
- reduction in CFU (bacterial load per larva) [1]: 2 log

Compound: C=C(C)[C@@H]1CCC(C)=C[C@H]1c1c(O)cc(CCCCC)cc1O [cannabidiol]
- bacterial load [2]: able to reduce bacterial load

Compound: N.N.[Cl][Pt][Cl] [cisplatin]
- antimicrobial activity [3]: no antimicrobial activity

Reference: publication PMC8596843, “Platinum Cyclooctadiene Complexes with Activity against Gram‐positive Bacteria” (Chemmedchem, 2021)
